For the test, the target named is T1, human EP1 receptor (Homo sapiens, UniProt P34995).
T1 construct: expressed in transfected cells; host or cells: CHO-K1
T1 sequence (P34995 1-402): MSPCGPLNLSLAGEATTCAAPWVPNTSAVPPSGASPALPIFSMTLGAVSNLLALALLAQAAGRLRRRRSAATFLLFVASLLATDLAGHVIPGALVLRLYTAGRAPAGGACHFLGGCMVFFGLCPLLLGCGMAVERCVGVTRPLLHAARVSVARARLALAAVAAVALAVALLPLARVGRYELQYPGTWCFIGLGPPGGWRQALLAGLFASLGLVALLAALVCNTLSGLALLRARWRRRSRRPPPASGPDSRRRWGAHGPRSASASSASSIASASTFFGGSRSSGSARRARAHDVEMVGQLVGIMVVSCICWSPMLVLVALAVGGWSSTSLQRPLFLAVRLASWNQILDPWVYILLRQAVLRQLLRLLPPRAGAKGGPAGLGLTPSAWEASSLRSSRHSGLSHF
In words: human EP1 calcium mobilisation assay. Type of test: cell-based. Particulars: human EP1, PGE2-induced calcium mobilisation in CHO-K1 cells; free bases or sodium salts; averages of a number of experiments; read-out: functional pKi value (converted). As to the method: Briefly, the antagonist properties of compounds are assessed by their ability to inhibit the mobilisation of intracellular calcium ([Ca^2+]i) in response to activation of EP1 or EP3 receptors by the natural agonist hormone prostaglandin E2 (PGE2). Increasing concentrations of antagonist reduce the amount of calcium that a given concentration of PGE2 can mobilise. The net effect is to displace the PGE2 concentration-effect curve to higher concentrations of PGE2. The amount of calcium produced is assessed using a calcium-sensitive fluorescent dye such as Fluo-4, AM and a suitable instrument such as a Fluorimetric Imaging Plate Reader (FLIPR). Increasing amounts of [Ca^2+]i produced by receptor activation increase the amount of fluorescence produced by the dye and give rise to an increasing signal. The signal may be detected using the FLIPR instrument and the data generated may be analysed with suitable curve-fitting software.
The human EP1 or EP3 calcium mobilisation assay (hereafter referred to as ‘the calcium assay’) utilises Chinese hamster ovary-K1(CHO-K1) cells into which a stable (pCIN; BioTechniques 20 (1996): 102-110) vector containing either EP1 or EP3 cDNA has previously been transfected. Cells are cultured in suitable flasks containing culture medium such as DMEM:F-12 supplemented with 10% v/v foetal calf serum, 2 mM L-glutamine, 0.25 mg/ml geneticin, 100 μM flurbiprofen and 10 μg/ml puromycin.
For assay, cells are harvested using a proprietary reagent that dislodges cells such as Versene. Cells are re-suspended in a suitable quantity of fresh culture media for introduction into a 384-well plate. Following incubation for 24 hours at 37° C. the culture media is replaced with a medium containing Fluo-4 and the detergent pluronic acid, and a further incubation takes place. Concentrations of compounds are then added to the plate in order to construct concentration-effect curves. This may be performed on the FLIPR in order to assess the agonist properties of the compounds. Concentrations of PGE2 are then added to the plate in order to assess the antagonist properties of the compounds.
The data so generated may be analysed by means of a computerised curve-fitting routine. The concentration of compound that elicits a half-maximal inhibition of the calcium mobilisation induced by PGE2 (pIC50) may then be estimated.

Structures can show the parent of a compound that is named as a salt.

`O=C(Nc1c(F)cccc1F)c1ccc(Cc2cc(Cl)ccc2OCC2CC2)o1` [Example 94, 5-({5-Chloro-2-[(cyclopropylmethyl)oxy]-phenyl}methyl)-N-(2,6-difluorophenyl)-2-furancarboxamide]: the Ki is less than 1 µM.

Regarding `O=C(O)c1ccc(Cc2cc(Cl)ccc2OCc2ccccn2)o1` [Example 26, Sodium 5-({5-chloro-2-[(2-pyridinylmethyl)oxy]phenyl}methyl)-2-furancarboxylate], the Ki was not above 0.01 µM.

On to `CC(C)COc1ccc(Cl)cc1Cc1ccc(-c2nc3cscc3[nH]2)o1` [Example 109, 2-[5-({5-Chloro-2-[(2-methylpropyl)oxy]-phenyl}methyl)-2-furanyl]-1H-thieno[3,4-d]imidazole], for which the Ki is less than 1 µM. Take `O=C(Nc1c(F)cccc1F)c1ccc(Cc2cc(Cl)ccc2OCc2c(F)cccc2F)o1` [Example 85, 5-[(5-Chloro-2-{[(2,6-difluorophenyl)methyl]oxy}-phenyl)methyl]-N-(2,6-difluorophenyl)-2-furancarboxamide]: the Ki was less than 1 µM. With `CC(C)COc1ccc(Cl)cc1Cc1ccc(C(=O)NCc2ccccn2)o1` [Example 58, 5-({5-Chloro-2-[(2-methylpropyl)oxy]-phenyl}methyl)-N-(2-pyridinylmethyl)-2-furancarboxamide] the figure was less than 1 µM; with `CC(C)COc1ccc(Cl)cc1Cc1ccc(-c2nc3ccc(Br)cc3[nH]2)o1` [Example 110, 5-Bromo-2-[5-({5-chloro-2-[(2-methylpropyl)oxy]-phenyl}methyl)-2-furanyl]-1H-benzimidazolehydrochloride], more than 1 µM. As to `O=C(Nc1ccccc1Br)c1ccc(Cc2cc(Cl)ccc2OCc2ccccc2)o1` [Example 76, N-(2-bromophenyl)-5-({5-chloro-2-[(phenylmethyl)oxy]-phenyl}methyl)-2-furancarboxamide], the Ki is less than 1 µM.

Consider `CC(C)COc1ccc(Cl)cc1Cc1ccc(-c2nc3cc(CN4CCCC4)cnc3[nH]2)o1` [Example 165, 2-[5-({5-Chloro-2-[(2-methylpropyl)oxy]-phenyl}methyl)-2-furanyl]-6-(1-pyrrolidinylmethyl)-1H-imidazo[4,5-b]pyridinedihydrochloride], for which the Ki is less than 1 µM. `CC(C)COc1ccc(Cl)cc1Cc1ccc(-c2nc3cc(Br)cnc3[nH]2)o1` [Example 135, 6-Bromo-2-[5-({5-chloro-2-[(2-methylpropyl)oxy]phenyl}methyl)-2-furanyl]-1H-imidazo[4,5-b]pyridine hydrochloride]: the Ki is more than 1 µM. Regarding `CC(C)CNC(=O)c1ccc(Cc2cc(Cl)ccc2OCc2ccccc2)o1` [Example 50, 5-({5-Chloro-2-[(phenylmethyl)oxy]phenyl}methyl)-N-(2-methylpropyl)-2-furancarboxamide], the Ki is less than 1 µM.

As to `COCCOc1ccc(Cl)cc1Cc1ccc(C(=O)O)o1` [Example 8, Sodium 5-[(5-chloro-2-{[2-(methyloxy)ethyl]oxy}phenyl)methyl]-2-furancarboxylate], the Ki is less than 1 µM. Consider `CC(C)COc1ccc(Cl)cc1Cc1ccc(C(=O)NCc2ccc(-c3cccnc3)cc2)o1` [Example 45, 5-({5-Chloro-2-[(2-methylpropyl)oxy]phenyl}methyl)-N-{[4-(3-pyridinyl)phenyl]methyl}-2-furancarboxamide], for which the Ki is less than 1 µM.

With `Clc1ccc(OCc2ccccc2)c(Cc2ccc(-c3nc4ccc(CN5CCOCC5)cc4[nH]3)o2)c1` [Example 139, 2-[5-({5-Chloro-2-[(phenylmethyl)oxy]-phenyl}methyl)-2-furanyl]-5-(4-morpholinylmethyl)-1H-benzimidazoledihydrochloride], the Ki is less than 1 µM.

For the compound `C=Cc1cnc2[nH]c(-c3ccc(Cc4cc(Cl)ccc4OCC(C)C)o3)nc2c1` [Example 137, 2-[5-({5-Chloro-2-[(2-methylpropyl)oxy]phenyl}methyl)-2-furanyl]-6-ethenyl-1H-imidazo[4,5-b]pyridine hydrochloride], the Ki was less than 1 µM.

On to `CCN(CC)Cc1ccc2nc(-c3ccc(Cc4cc(Cl)ccc4OCC(C)C)o3)[nH]c2c1` [Example 150, N-({2-[5-({5-Chloro-2-[(2-methylpropyl)oxy]-phenyl}methyl)-2-furanyl]-1H-benzimidazol-5-yl}methyl)-N-ethylethanaminedihydrochloride], for which the Ki was less than 1 µM. As for `CCN1CCN(c2ccc3nc(-c4ccc(Cc5cc(Cl)ccc5OCC(C)C)o4)[nH]c3c2)CC1` [Example 114, 2-[5-({5-Chloro-2-[(2-methylpropyl)oxy]-phenyl}methyl)-2-furanyl]-5-(4-ethyl-1-piperazinyl)-1H-benzimidazoletrihydrochloride], the Ki was less than 1 µM. `O=C(Nc1ccccc1Cl)c1ccc(Cc2cc(Cl)ccc2OCc2ccccc2)o1` [Example 72, N-(2-chlorophenyl)-5-({5-chloro-2-[(phenylmethyl)oxy]-phenyl}methyl)-2-furancarboxamide]: the Ki is less than 1 µM. `CC(C)COc1ccc(Cl)cc1Cc1ccc(C(=O)NCc2ccc(C(N)=O)cc2)o1` [Example 46, N-{[4-(Aminocarbonyl)-phenyl]methyl}-5-({5-chloro-2-[(2-methylpropyl)oxy]phenyl}methyl)-2-furancarboxamide]: the Ki was less than 1 µM. With `CC(C)COc1ccc(Cl)cc1Cc1ccc(-c2nc3cc(F)ccc3[nH]2)o1` [Example 122, 2-[5-({5-Chloro-2-[(2-methyipropyl)oxy]phenyl}methyl)-2-furanyl]-5-fluoro-1H-benzimidazole], the Ki was less than 1 µM. Regarding `Cc1cc(NC(=O)OC(C)(C)C)oc1Cc1cc(Cl)ccc1OCC(C)C` [Example 30, 1,1-Dimethylethyl[5({5-chloro-2-[(2-methylpropyl)oxy]phenyl}methyl)-4-methyl-2-furanyl]carbamate], the Ki was less than 1 µM. For the compound `Cc1cccc(C)c1NC(=O)c1ccc(Cc2cc(Cl)ccc2OCc2ccccc2)o1` [Example 71, 5-({5-Chloro-2-[(phenylmethyl)oxy]-phenyl}methyl)-N-(2,6-dimethylphenyl)-2-furancarboxamide], the Ki was less than 1 µM. The result for `Cc1cc(C(=O)O)oc1Cc1cc(Cl)ccc1OCC(C)C` [Example 14, Sodium 5-({5-chloro-2-[(2-methylpropyl)oxy]phenyl}methyl)-4-methyl-2-furancarboxylate] reads not above 0.01 µM; that for `CCC(CC)COc1ccc(Cl)cc1Cc1ccc(C(=O)Nc2c(F)cccc2F)o1` [Example 97, 5-({5-Chloro-2-[(2-ethylbutyl)oxy]phenyl}meth-yl)-N-(2,6-difluorophenyl)-2-furancarboxamide], less than 1 µM.

In the case of `O=C(O)c1ccc(Cc2cc(Cl)ccc2OCc2cccnc2)o1` [Example 27, Sodium 5-({5-chloro-2-[(3-pyridinylmethyl)oxy]phenyl}methyl)-2-furancarboxylate], the Ki was less than 1 µM. Regarding `CC(C)COc1ccc(Cl)cc1Cc1ccc(C(=O)NCc2ccc(F)cc2)o1` [Example 37], the Ki was less than 1 µM. The result for `CC(C)COc1ccc(Cl)cc1Cc1ccc(C(=O)Nc2c(F)cccc2F)o1` [Example 80, 5-({5-Chloro-2-[(2-methylpropyl)oxy]-phenyl}methyl)-N-(2,6-difluorophenyl)-2-furancarboxamide] reads less than 1 µM. With `CC(C)COc1ccc(Cl)cc1Cc1ccc(C(=O)NCc2ccc3c(c2)OCO3)o1` [Example 39, N-(1,3-Benzodioxol-5-ylmethyl)-5-({5-chloro-2-[(2-methylpropyl)oxy]phenyl}methyl)-2-furancarboxamide] the figure was less than 1 µM.

With `O=C(O)Cc1ccc(Cc2cc(Cl)ccc2OCc2ccccc2)o1` [Example 16, Sodium [5-({5-chloro-2-[(phenylmethyl)oxy]phenyl}methyl)-2-furanyl]acetate], the Ki was not above 0.01 µM. The result for `CC(C)COc1ccc(Cl)cc1Cc1ccc(-c2nc3cc(C(C)(C)C)ccc3[nH]2)o1` [Example 127, 2-[5-({5-Chloro-2-[(2-methylpropyl)oxy]phenyl}-methyl)-2-furanyl]-5-(1,1-dimethylethyl)-1H-benzimidazole] reads less than 1 µM.
